Calls of active or inactive are those of the source. The calls are words filed in the database; no cut-off is given here.
Key:
Trichophyton rubrum = assay: Antifungal activity against Trichophyton rubrum NBRC 9185 assessed as inhibition of fungal growth incubated for 96 hrs by CLSI protocol based analysis; format: functional
SH-SY5Y [1] = assay: Neuroprotective activity against MPP-induced cytotoxicity in human SH-SY5Y cells assessed as decrease in Bak mRNA expression level at 10 umol/L by RT-qPCR analysis; format: functional, cell-based; settings: dose 10.0 µmol/L
SH-SY5Y [2] = assay: Neuroprotective activity against MPP-induced cytotoxicity in human SH-SY5Y cells assessed as decrease in cell death at 10 umol/L preincubated with compound for 24 hrs followed by MPP addition and measured after 24 hrs by MTT assay; format: functional, cell-based; settings: dose 10.0 µmol/L, time 48.0 hrs
Enterococcus faecalis = assay: Antibacterial activity against Enterococcus faecalis ATCC 19433 assessed as reduction in bacterial growth after 24 hrs by CLSI protocol based analysis; format: functional
SH-SY5Y [3] = assay: Neuroprotective activity against MPP-induced cytotoxicity in human SH-SY5Y cells assessed as increase in Bcl-xL mRNA expression level at 10 umol/L by RT-qPCR analysis; format: functional, cell-based; settings: dose 10.0 µmol/L
Candida albicans = assay: Antifungal activity against Candida albicans ATCC 10231 assessed as reduction in fungal growth incubated for 24 hrs by CLSI protocol based analysis; format: functional
Escherichia coli = assay: Antibacterial activity against Escherichia coli ATCC 25922 assessed as reduction in bacterial growth after 24 hrs by CLSI protocol based analysis; format: functional
Aspergillus fumigatus = assay: Antifungal activity against Aspergillus fumigatus HIC 6094 assessed as inhibition of fungal growth incubated for 48 hrs by CLSI protocol based analysis; format: functional
Salmonella enterica = assay: Antibacterial activity against Salmonella enterica ATCC 14028 assessed as reduction in bacterial growth after 24 hrs by CLSI protocol based analysis; format: functional
Staphylococcus aureus [4] = assay: Antibacterial activity against methicillin-resistant Staphylococcus aureus ATCC 43300 assessed as reduction in bacterial growth incubated for 24 hrs by CLSI protocol based analysis; format: functional
Staphylococcus aureus [5] = assay: Antibacterial activity against Staphylococcus aureus ATCC 25923 assessed as reduction in bacterial growth incubated for 24 hrs by CLSI protocol based analysis; format: functional
Klebsiella pneumoniae = assay: Antibacterial activity against Klebsiella pneumoniae ATCC 10031 assessed as reduction in bacterial growth after 24 hrs by CLSI protocol based analysis; format: functional
[6] = test system: Mycobacterium tuberculosis; assay: Antitubercular activity against wild type Mycobacterium tuberculosis mc2 6230 assessed as bacterial growth inhibition incubated for 5 days by resazurin microtiter assay; format: functional; settings: mc2 6230, 120 h, time 5 day
[7] = test system: Trichophyton mentagrophytes; assay: Antifungal activity against Trichophyton mentagrophytes IFM 40996 assessed as inhibition of fungal growth incubated for 96 hrs by CLSI protocol based analysis; format: functional
Enterococcus faecium = assay: Antibacterial activity against Enterococcus faecium ATCC 19434 assessed as reduction in bacterial growth after 24 hrs by CLSI protocol based analysis; format: functional

CCC/C=C/C=C/C=C/[C@@H](O)C[C@]1(O)O[C@H](C[C@H](O)[C@@H](O)[C@H](O)[C@H]2OC(=O)[C@@H](C)[C@@H]2O)[C@@H](O)[C@H](O)[C@@H]1O
MIC (Trichophyton rubrum): > 128 µg/mL
Activity (SH-SY5Y [1]): Active
Activity (SH-SY5Y [2]): Active
MIC (Enterococcus faecalis): > 128 µg/mL
Activity (SH-SY5Y [3]): Active
MIC (Candida albicans): > 128 µg/mL
MIC (Escherichia coli): > 128 µg/mL
MIC (Aspergillus fumigatus): > 128 µg/mL
MIC (Salmonella enterica): > 128 µg/mL
MIC (Staphylococcus aureus [4]): > 128 µg/mL
MIC (Staphylococcus aureus [5]): > 128 µg/mL
MIC (Klebsiella pneumoniae): > 128 µg/mL
MIC [6]: > 128 µg/mL
MIC [7]: > 128 µg/mL
MIC (Enterococcus faecium): > 128 µg/mL

— ChEMBL document CHEMBL5344449, “Retinestatin, a Polyol Polyketide from a Termite Nest-Derived Streptomyces sp” (2024)
